The assay deals with non-endogenous, constitutively activated version of the human 5-HT2A receptor (human CART 5-HT2A) (Homo sapiens, UniProt P28223). The assay is described as follows: Intracellular IP3 (inositol phosphate) accumulation assay, inverse agonist potency. The class given is cell-based. The following applies: HEK293 cells transfected with mutated constitutively active 5-HT2A, averages of at least two trials, read-out: 5-HT2A (IC50) IP Accumulation Assay. The source says:
It is well established that human 5-HT2A receptors coupled to the guanine nucleotide binding protein Gq. 5-HT2A-mediated activation of Gq results in activation of membrane associated phospholipase C which in turn catalyzes the hydrolysis of phosphatidylinositol species (PI, PIP, and PIP2) to form inositol phosphate species (IP, IP2, and IP3). The accumulation of inositol phosphate species can be measured and is often used to determine the functional potency of 5-HT2A agonists or antagonists. However, to evaluate compounds for potential inverse agonist activity, the 5-HT2A receptor must display constitutive activity. We have mutated the human 5-HT2A receptor so as to generate a non-endogenous, constitutively activated version of the 5-HT2A receptor, as disclosed in SEQ ID NO:30 (polynucleotide) and SEQ ID NO:31 (polypeptide) in U.S. Pat. No. 6,541,209 (the disclosure of which is hereby incorporated by reference in its entirety). Upon transfection of this mutated 5-HT2A into HEK293 cells, it was observed that there was a ligand-independent increase in basal inositol phosphate accumulation compared to untransfected cells. This ligand-independent insoitol phosphate accumulation is a trademark of constitutive activity. The following protocol was used to assess inverse agonist potency of compounds.
On day one, 13×10^6 HEK293 cells per 150 mm plate were plated out. On day two, 2 ml of serum OptimemI is added per plate followed by addition of 60 ul of lipofectamine and 16ug of cDNA. Note that lipofectamine must be added to the OptimemI and mixed well before addition of cDNA. While complexes between lipofectamine and the cDNA are forming, media is carefully aspirated and cells are gently rinsed with 5 ml of OptimemI media followed by careful aspiration. Then 12 ml of OptimemI is added to each plate and 2 ml of transfection solution is added followed by a 5 hour incubation at 37° C. in a 5% CO2 incubator. Plates are then carefully aspirated and 25 ml of Complete Media are added to each plate and cells are then incubated until used. On day 3, cells are trypsinized with 5 ml of 0.05% trypsin for 20-30 seconds followed by addition of 10 ml of warmed media, gently titurated to dissociate cells, and then 13 additional ml of warmed media is gently added. Cells are then counted and then 55,000 cells are added to 96-well sterile poly-D-lysine coated plates. Cells are allowed to attach over a six hour incubation at 37° C. in a 5% CO2 incubator. Media is then carefuilly aspirated and 100 ul of warm inositol-free media plus 0.5 μCi ^3H-inositol is added to each well and the plates are incubated for 18-20 hours at 37° C. in a 5% CO2 incubator.
On day 4, media is carefully aspirated and then 0.1 ml of assay medium is added containing inositol-free/serum free media, 10 μM pargyline, 10 mM lithium chloride, and test compound at indicated concentrations. The plates were then incubated for three hours at 37° C. and then wells are carefully aspirated. Then 200 ul of ice-cold 0.1M formic acid is added to each well. Plates can then be frozen at this point at −80° C. until further processed. Frozen plates are then thawed over the course of one hour, and the contents of the wells (approximately 220 ul) are placed over 400 ul of washed ion-exchange resin (AG 1-X8) contained in a Multi Screen Filtration plate and incubated for 10 minutes followed by filtration under vacuum pressure. Resin is then washed nine times with 200 ul of water and then [^3H]inositol phosphates are eluted into a collecting plate by the addition of 200 ul of 1M ammonium formate and an additional 5 minute incubation. The elutant is then transferred to 20 ml scintillation vials, 8 ml of SuperMix or Hi-Safe scintillation cocktails is added, and vials are counted for 0.5-1 minutes in a Wallac 1414 scintilation counter.
At each concentration, triplicate determinations were made. […]

For `Cn1ncc(Br)c1-c1cccc(Nc2ccc(S(C)(=O)=O)cc2)c1` [Compound 46, [3-(4-Bromo-2-methyl-2H-pyrazol-3-yl)-phenyl]-(4-methanesulfonyl-phenyl)-amine], the IC50 came out at 113 nM.

For `Cn1ncc(Br)c1-c1cccc(Nc2ccc(C(F)(F)F)cc2)c1` [Compound 44, [3-(4-Bromo-2-methyl-2H-pyrazol-3-yl)-phenyl]-(4-trifluoromethyl-phenyl)-amine], the half-inhibitory concentration (IC50) worked out at 2.99 nM.

As for `COc1ccc(Nc2ccc(Cl)cc2)cc1-c1c(Br)cnn1C` [Compound 70, [3-(4-Bromo-2-methyl-2H-pyrazol-3-yl)-4-methoxy-phenyl)-(4-chloro-phenyl)-amine], the IC50 was found to be 1.77 nM.

Turning to `Cc1cc(Nc2cccc(-c3c(Br)cnn3C)c2)ccc1Cl` [Compound 49, [3-(4-Bromo-2-methyl-2H-pyrazol-3-yl)-phenyl]-(3-methyl-4-chloro-phenyl)-amine], the IC50 turned out to be 19 nM.

As to `Cn1ncc(Cl)c1-c1cccc(Nc2ccc(OC(F)(F)F)cc2)c1` [Compound 8, [3-(4-Chloro-2-methyl-2H-pyrazol-3-yl)-phenyl]-(4-trifluoromethoxy-phenyl)-amine], the half-maximal inhibitory concentration (IC50) is 44.6 nM.

Consider `Cn1ncc(Br)c1-c1cccc(Nc2ccc(Cl)cc2)c1` [Compound 36, [3-(4-Bromo-2-methyl-2H-pyrazo1-3-yl)-phenyl]-(4-chloro-phenyl)-amine], for which the half-maximal inhibitory concentration (IC50) came to 7 nM.

With `Cn1ncc(Br)c1-c1cccc(Nc2nc3ccccc3o2)c1` [Compound 57, Benzoxazol-2-yl-[3-(4-bromo-2-methyl-2H-pyrazol-3-yl)-phenyl]-amine], the IC50 stood at 10.6 nM.

For the origin of these results see patent publication US20060229335A1, “Diarylamine and arylheteroarylamine pyrazole derivatives as modulators of 5ht2a” (priority 2002, published 2006).
